Test results taken from patent publication US20130184273A1, “BICYCLIC PYRIMIDINES” (Bayer Intellectual Property GmbH, priority 2010, published 2013).

Legend:
[1] = biological target: T1, His-tagged human recombinant kinase full-length Akt2 (Homo sapiens, UniProt P31751); experiment: Akt2 kinase assay (TR-FRET); assay type: biochemical; settings: 10 μM ATP, 60 min at 22° C., read-out: Akt2, median IC50
T1 construct: His-tagged human recombinant kinase full-length Akt2; His; purchased Invitrogen PV 3975; host or cells: insect cells
How it was run: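 His-tagged full-length human Akt2, insect-cell expressed and PDK1-activated (~0.2 ng/μl final), pre-incubated with compound 15 min at 22 °C, then reacted 60 min with 10 μM ATP and 1 μM biotinylated peptide. Phospho-peptide detected by TR-FRET (665/620 nm ratio), normalised to no-inhibitor and no-enzyme controls.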

[2] = biological target: T2, His-tagged human recombinant kinase full-length Akt1 (Homo sapiens, UniProt P31749); experiment: Akt1 kinase assay (TR-FRET); assay type: biochemical; settings: 10 μM ATP, 60 min at 22° C., read-out: Akt1, median IC50
T2 construct: His-tagged human recombinant kinase full-length Akt1; His; purchased Invitrogen PV 3599; host or cells: insect cells
T2 sequence (P31749 whole entry): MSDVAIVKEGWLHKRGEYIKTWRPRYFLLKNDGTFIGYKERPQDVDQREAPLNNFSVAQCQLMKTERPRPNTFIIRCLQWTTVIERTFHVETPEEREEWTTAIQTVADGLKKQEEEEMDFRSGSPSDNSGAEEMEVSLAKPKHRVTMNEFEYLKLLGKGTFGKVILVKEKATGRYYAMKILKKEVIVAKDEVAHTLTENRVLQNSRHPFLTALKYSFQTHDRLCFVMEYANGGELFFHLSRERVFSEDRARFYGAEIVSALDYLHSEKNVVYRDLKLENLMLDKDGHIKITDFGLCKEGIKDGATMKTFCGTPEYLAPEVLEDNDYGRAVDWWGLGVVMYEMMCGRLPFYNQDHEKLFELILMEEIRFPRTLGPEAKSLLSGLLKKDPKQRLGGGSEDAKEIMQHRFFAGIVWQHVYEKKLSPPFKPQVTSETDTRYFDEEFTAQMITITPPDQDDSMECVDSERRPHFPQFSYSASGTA

T1 sequence (P31751 whole entry): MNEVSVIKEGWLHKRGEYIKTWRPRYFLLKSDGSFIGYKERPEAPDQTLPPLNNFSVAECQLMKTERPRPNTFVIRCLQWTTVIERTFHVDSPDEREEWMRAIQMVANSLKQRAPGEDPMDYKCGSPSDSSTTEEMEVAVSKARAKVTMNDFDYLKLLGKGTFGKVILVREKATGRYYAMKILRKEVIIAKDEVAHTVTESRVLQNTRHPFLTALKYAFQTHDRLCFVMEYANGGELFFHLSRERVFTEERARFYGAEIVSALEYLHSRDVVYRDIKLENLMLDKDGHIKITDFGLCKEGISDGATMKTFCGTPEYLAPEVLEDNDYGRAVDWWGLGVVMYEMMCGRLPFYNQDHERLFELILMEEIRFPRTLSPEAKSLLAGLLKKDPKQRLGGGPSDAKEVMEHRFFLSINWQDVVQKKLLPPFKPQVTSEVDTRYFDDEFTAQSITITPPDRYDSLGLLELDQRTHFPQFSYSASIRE

SMILES | IC50 [1] | IC50 [2]
Cc1nc2nc(-c3ccc(C4(N)CCC4)cc3)c(-c3ccccc3)cn2n1 [Example 1-0, 1-[4-(2-methyl-6-phenyl-[1,2,4]triazolo[1,5-a]pyrimidin-5-yl)-phenyl]-cyclobutylamine] | 960 nM | 794 nM
Cc1cn2cc(-c3ccccc3)c(-c3ccc(C4(N)CCC4)cc3)nc2n1 [Example 2-1, 1-[4-(2-Methyl-6-phenyl-imidazo[1,2-a]pyrimidin-7-yl)-phenyl]-cyclobutylamine] | 487 nM | 474 nM
CS(=O)(=O)c1ccc(-c2cnc3nc(-c4ccc(C5(N)CCC5)cc4)c(-c4ccccc4)cn23)cc1 [Example 4-0, 1-{4-[3-(4-Methansulfonyl-phenyl)-6-phenyl-imidazo[1,2-a]pyrimidin-7-yl]-phenyl}-cyclobutylamine] | 299 nM | 329 nM
Cn1cc(-c2nc3nc(-c4ccc(C5(N)CCC5)cc4)c(-c4ccccc4)cn3n2)cn1 [Example 5-2, 1-{4-[2-(1-methyl-1H-pyrazol-4-yl)-6-phenyl-[1,2,4]triazolo[1,5-a]pyrimidin-5-yl]-phenyl}-cyclobutylamine] | 340 nM | 376 nM
NC1(c2ccc(-c3nc4ncc(-c5ccc(F)cc5)n4cc3-c3ccccc3)cc2)CCC1 [Example 6-0, 1-{4-[3-(4-Fluorophenyl)-6-phenyl-imidazo[1,2-a]pyrimidin-7-yl]-phenyl}-cyclobutylamine] | 681 nM | 1410 nM
NC(=O)c1cccc(-c2cnc3nc(-c4ccc(C5(N)CCC5)cc4)c(-c4ccccc4)cn23)c1 [Example 6-2, 3-{7-[4-(1-Amino-cyclobutyl)-phenyl]-6-phenyl-imidazo[1,2-a]pyrimidin-3-yl}-benzamide] | 205 nM | 824 nM
NC1(c2ccc(-c3nc4ncc(-c5cn[nH]c5)n4cc3-c3ccccc3)cc2)CCC1 [Example 6-3, 1-{4-[6-Phenyl-3-(1H-pyrazol-4-yl)-imidazo[1,2-a]pyrimidin-7-yl]-phenyl}-cyclobutylamine] | 165 nM | 235 nM
